In patent US20060035848A1, “Broad-spectrum inhibitor of viruses in the Flaviviridae family” (ZymeTx, Inc., priority 2004, published 2006):
Converted amounts (≈) assume the structure as drawn. Where two headings read alike, the source gives them in different places.

Key:
[1] = test system: Yellow fever virus (YFV), 17D strain; assay: microbe, parasite or virus in culture; format: cell-based; settings: Vero
[2] = test system: Bovine viral diarrhea virus (BVDV), TN131 strain; assay: microbe, parasite or virus in culture; format: cell-based; settings: Bovine viral diarrhea virus isolates and strains
[3] = test system: Banzi virus (BV), H 336 strain; assay: microbe, parasite or virus in culture; format: cell-based; settings: Vero
WNV [4] = settings: Morrey et al., 2002; cited from earlier work
in vitro [5] = settings: African green monkey
in vitro [6] = settings: bovine
in vitro [7] = settings: African green monkey; remark: listed apart in the source
[8] = test system: West Nile Virus ATCC VR-82 (strain B956); assay: CPE inhibition assay against West Nile virus ATCC VR-82 (visual and neutral red reading); format: cell-based; settings: Vero
[9] = test system: West Nile virus New York Isolate; assay: CPE inhibition assay against West Nile virus New York isolate in Vero cells; format: cell-based
[10] = Cytotoxicity in toxicity control wells of the WNV tests; format: cell-based; settings: African green monkey, Vero 76 cells (kidney), uninfected toxicity control wells
WNV [11] = assay: Virus yield reduction (VYR) assay, West Nile virus; format: cell-based; settings: for EC90: West Nile virus, read-out: Virus yield reduction assay EC90
WNV [12] = assay: Inhibition of CPE assay at time points after initiation (Table 2); format: cell-based, West Nile virus; settings: for EC50: West Nile virus, 144 h, read-out: Inhibition of CPE assay EC50
GAPDH mRNA = assay: Cytotoxicity by GAPDH mRNA in HCV replicon-containing cells; settings: FIG. 1B
[13] = 144 h, New York Isolate, Visual, Vero cells, 6 days post-virus exposure
[14] = New York Isolate, NR (Neutral red), Vero cells
[15] = ATCC VR-82 columns, NR (Neutral red)
[16] = New York Isolate columns, NR (Neutral red)
[17] = New York Isolate columns, Visual

| SMILES | EC50 [1] [µg/mL] | EC50 [2] [µg/mL] | EC50 [3] [µg/mL] | CC50 (in vitro [5]) [µg/mL] | CC50 (in vitro [6]) [µg/mL] | CC50 (in vitro [7]) [µg/mL] | EC50 [8] [µg/mL] | EC50 ([8]; 144 h) [µg/mL] | EC50 [9, 13] [µg/mL] | EC50 [9, 14] [µg/mL] | CC50 at 6 days [10, 15] [µg/mL] | CC50 at 6 days ([10]; ATCC VR-82 columns, Visual) [µg/mL] | CC50 at 6 days [10, 16] [µg/mL] | CC50 at 6 days [10, 17] [µg/mL] | EC90 (WNV [11]; 48 h) [µg/mL] | EC90 (WNV [11]; 144 h) [µg/mL] | EC50 (WNV [12]) [µg/mL] | further results |
| --- | --- | --- | --- | --- | --- | --- | --- | --- | --- | --- | --- | --- | --- | --- | --- | --- | --- | --- |
| NC(=O)c1ncn([C@@H]2O[C@H](CO)[C@@H](O)[C@H]2O)n1 [Ribavirin, reference compound] | 32 (≈ 131 µM) | 5 (≈ 20.5 µM) | 60 (≈ 246 µM) | > 100 | > 100 | > 100 | – | – | – | – | – | – | – | – | – | – | – | activity against WNV in tissue culture (WNV [4]): poor activity |
| Nc1nc(=O)n2ccn([C@@H]3O[C@H](CO)[C@@H](O)[C@H]3O)c2n1 [ZX-2401, 2-amino-8-(β-D-ribofuranosyl) imidazo [1,2-a]-s-triazine-4-one] | 10 (≈ 35.3 µM) | 0.6 (≈ 2.12 µM) | 5 (≈ 17.7 µM) | > 100 | > 100 | > 100 | 3 (≈ 10.6 µM) | < 4.6 | 9.5 (≈ 33.5 µM) | 8 (≈ 28.2 µM) | > 100 | > 100 | > 100 | > 100 | 3.3 (≈ 11.7 µM) | 40 (≈ 141 µM) | 15 (≈ 53 µM) | EC50 ([9]; MOI 1.6 × 10^−3, New York strain in Vero cells): 20 µg/mL (≈ 70.6 µM); EC50 ([9]; MOI 1.6 × 10^−4, New York strain in Vero cells): 12 µg/mL (≈ 42.4 µM); EC50 ([9]; MOI 5 × 10^−4, New York strain in Vero cells): 15 µg/mL (≈ 53 µM); EC50 ([9]; MOI 5 × 10^−5 (5 CCID50), New York strain in Vero cells): 15 µg/mL (≈ 53 µM); Toxicity by visual inspection of treated uninfected cultures (Vero cells): No toxicity; toxicity as measured by GAPDH mRNA levels (GAPDH mRNA): no toxicity |
| O=c1cnn([C@@H]2O[C@H](CO)[C@@H](O)[C@H]2O)c(=O)[nH]1 [6-aza-U, 6-azauridine, reference compound] | – | – | – | – | – | – | 5 (≈ 20.4 µM) | 22 (≈ 89.7 µM) | 0.9 (≈ 3.67 µM) | 1.6 (≈ 6.53 µM) | > 100 | 85 (≈ 347 µM) | > 100 | 85 (≈ 347 µM) | 1.6 (≈ 6.53 µM) | 431 (≈ 1760 µM) | 3.1 (≈ 12.6 µM) | Effect of addition of fresh compound every 2 days on VYR (WNV [11]; day 6, compared to no addition of fresh compound): did not improve; CPE observed (WNV [12]; 8 days post-virus initiation, cells treated with any concentration): 100% |
